Data reported in patent US20230117831A1, “MULTI-FUNCTIONAL CHIMERIC MOLECULES” (THE BROAD INSTITUTE, INC., priority 2020, published 2023).
Read-outs that look alike come from different tables or passages of the source.

Tests used:
PKCalpha = PKCalpha (Homo sapiens, UniProt P17252); conditions: PKC alpha; read-out: Kd; cited from earlier work
PKC beta = PKC beta (Homo sapiens, UniProt P05771); conditions: PKC beta, cited from earlier work
PKC gamma = PKC gamma (Homo sapiens, UniProt P05129); conditions: PKC gamma, cited from earlier work
PKC delta = PKC delta (Homo sapiens, UniProt Q05655); conditions: PKC delta, cited from earlier work
PKC epsilon = target: T1, PKC epsilon (Homo sapiens, UniProt Q02156); conditions: PKC epsilon, cited from earlier work
T1 sequence (Q02156 1-737): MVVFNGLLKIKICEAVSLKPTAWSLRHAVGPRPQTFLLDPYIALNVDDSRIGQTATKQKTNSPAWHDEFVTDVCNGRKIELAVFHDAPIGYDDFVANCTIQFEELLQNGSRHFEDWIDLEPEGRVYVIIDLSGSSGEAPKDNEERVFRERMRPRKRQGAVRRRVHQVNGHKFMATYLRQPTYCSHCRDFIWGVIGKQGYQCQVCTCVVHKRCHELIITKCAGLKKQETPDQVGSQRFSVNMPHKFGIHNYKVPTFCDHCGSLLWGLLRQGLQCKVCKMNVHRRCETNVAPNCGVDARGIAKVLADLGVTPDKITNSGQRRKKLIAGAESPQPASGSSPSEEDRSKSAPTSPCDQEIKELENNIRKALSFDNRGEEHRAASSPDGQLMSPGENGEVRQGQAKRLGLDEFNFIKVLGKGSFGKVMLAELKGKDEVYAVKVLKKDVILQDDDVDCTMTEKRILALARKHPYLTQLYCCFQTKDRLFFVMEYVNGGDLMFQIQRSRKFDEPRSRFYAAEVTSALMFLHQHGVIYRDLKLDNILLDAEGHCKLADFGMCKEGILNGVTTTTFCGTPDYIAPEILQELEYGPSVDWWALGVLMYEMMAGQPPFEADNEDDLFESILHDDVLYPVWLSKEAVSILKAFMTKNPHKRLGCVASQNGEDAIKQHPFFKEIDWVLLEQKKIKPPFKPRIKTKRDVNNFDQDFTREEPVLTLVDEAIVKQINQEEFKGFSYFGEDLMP

[1] = tested on: breast carcinoma cell lines MCF-7 and MDA-MB-231; conditions: cited from earlier work
PKC eta = PKC eta (Homo sapiens, UniProt P24723); conditions: cited from earlier work
PKCα = PKCα (Homo sapiens, UniProt P17252); test: ADP-Glo kinase activation, CREBtide peptide; assay type: biochemical; parameters: GST; purchased SignalChem P61-18G
Experimental: ADP-Glo assay was performed with PHICS (PKC) in a similar manner with some modifications as follows. In a 96 well plate (white, flat bottom), similar concentration series of PHICS (2.1, 2.2, 2.3, 2.4 and 2.5) were prepared using same kinase assay buffer and incubated with 2 ng of PKC, 0.2 μg/μL CREBtide peptide and 50 μM ATP for 1 hr at room temperature before incubation with ADP-Glo assay reagents.

BRAF = BRAF (Homo sapiens, UniProt P15056); conditions: cited from earlier work
BRD4 (AMPK) = BRD4 (AMPK) (Homo sapiens, UniProt O60885+Q13131+Q9Y478); test: in vitro kinase assay, BRD4 phosphorylation by AMPK with/without AMP; assay type: biochemical; conditions: 1 uM compound, with and without 100 uM AMP
Experimental: In vitro kinase assay was conducted for BRD4 phosphorylation by AMPK (1 uM compound). Compounds MS231, and VS806 tested are depicted below.
Compounds MS231, VS806 and VS804 were tested with and without 100 uM AMP. ADP glo for BRD4 phosphorylation by AMPK with and without AMP was conducted. The addition of AMP enhanced the phosphorylation signal, with ADP production measured at 2 hours, 20 nM AMPK.

BTK = BTK (Homo sapiens, UniProt Q06187); conditions: cited from earlier work
DDR2 = target: T2, DDR2 (Homo sapiens, UniProt Q16832); conditions: cited from earlier work
T2 sequence (Q16832 22-855): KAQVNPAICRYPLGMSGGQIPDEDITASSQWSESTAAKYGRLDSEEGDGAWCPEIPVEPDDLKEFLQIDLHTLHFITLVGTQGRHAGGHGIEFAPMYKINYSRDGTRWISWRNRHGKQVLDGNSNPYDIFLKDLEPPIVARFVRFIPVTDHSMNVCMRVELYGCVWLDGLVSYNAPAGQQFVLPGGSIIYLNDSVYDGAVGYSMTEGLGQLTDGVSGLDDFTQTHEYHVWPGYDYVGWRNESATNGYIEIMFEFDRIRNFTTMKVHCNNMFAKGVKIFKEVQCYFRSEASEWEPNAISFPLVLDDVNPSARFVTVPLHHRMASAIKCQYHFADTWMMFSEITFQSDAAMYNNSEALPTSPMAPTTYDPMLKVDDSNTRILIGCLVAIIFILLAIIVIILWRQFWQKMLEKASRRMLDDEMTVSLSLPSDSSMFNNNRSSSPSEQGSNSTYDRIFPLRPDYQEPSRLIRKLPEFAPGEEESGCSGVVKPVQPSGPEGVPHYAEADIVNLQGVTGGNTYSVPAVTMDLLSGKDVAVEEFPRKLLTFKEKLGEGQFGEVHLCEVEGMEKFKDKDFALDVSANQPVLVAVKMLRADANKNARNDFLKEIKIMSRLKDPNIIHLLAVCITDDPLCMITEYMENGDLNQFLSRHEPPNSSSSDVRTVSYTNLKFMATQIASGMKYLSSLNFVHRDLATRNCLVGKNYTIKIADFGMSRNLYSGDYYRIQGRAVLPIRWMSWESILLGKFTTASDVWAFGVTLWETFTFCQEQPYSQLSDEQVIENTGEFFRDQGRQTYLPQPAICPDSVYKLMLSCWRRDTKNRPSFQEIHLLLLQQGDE

FGFR1 = FGFR1 (Homo sapiens, UniProt P11362); conditions: cited from earlier work
FYN [isoform a] = FYN [isoform a] (Homo sapiens, UniProt P06241); conditions: cited from earlier work
TIE2 = TIE2 (Homo sapiens, UniProt Q02763); conditions: cited from earlier work
LYN [isoform a] = LYN [isoform a] (Homo sapiens, UniProt P07948); conditions: cited from earlier work
RET = RET (Homo sapiens, UniProt P07949); conditions: cited from earlier work
BRD4 (Abl) = BRD4 (Abl) (Homo sapiens, UniProt O60885+P00519); test: tyrosine phosphorylation Abl-BRD4 (Millipore); assay type: biochemical; conditions: relative to control DMSO
Experimental: Multi-functional molecules comprising a BRD4 localizing moiety and an Abl activator moiety were assayed for tyrosine phosphorylation activity (Millipore)(FIG. 91). […] DPH derived PHICS phosphorylation levels, and thus, Abl engagement, varied by attachment of the DPH derivative to the multifunctional chimeric molecule via orienting adaptor and linker (FIG. 92).

Chain of RET (P07949 29-1114, species assumed): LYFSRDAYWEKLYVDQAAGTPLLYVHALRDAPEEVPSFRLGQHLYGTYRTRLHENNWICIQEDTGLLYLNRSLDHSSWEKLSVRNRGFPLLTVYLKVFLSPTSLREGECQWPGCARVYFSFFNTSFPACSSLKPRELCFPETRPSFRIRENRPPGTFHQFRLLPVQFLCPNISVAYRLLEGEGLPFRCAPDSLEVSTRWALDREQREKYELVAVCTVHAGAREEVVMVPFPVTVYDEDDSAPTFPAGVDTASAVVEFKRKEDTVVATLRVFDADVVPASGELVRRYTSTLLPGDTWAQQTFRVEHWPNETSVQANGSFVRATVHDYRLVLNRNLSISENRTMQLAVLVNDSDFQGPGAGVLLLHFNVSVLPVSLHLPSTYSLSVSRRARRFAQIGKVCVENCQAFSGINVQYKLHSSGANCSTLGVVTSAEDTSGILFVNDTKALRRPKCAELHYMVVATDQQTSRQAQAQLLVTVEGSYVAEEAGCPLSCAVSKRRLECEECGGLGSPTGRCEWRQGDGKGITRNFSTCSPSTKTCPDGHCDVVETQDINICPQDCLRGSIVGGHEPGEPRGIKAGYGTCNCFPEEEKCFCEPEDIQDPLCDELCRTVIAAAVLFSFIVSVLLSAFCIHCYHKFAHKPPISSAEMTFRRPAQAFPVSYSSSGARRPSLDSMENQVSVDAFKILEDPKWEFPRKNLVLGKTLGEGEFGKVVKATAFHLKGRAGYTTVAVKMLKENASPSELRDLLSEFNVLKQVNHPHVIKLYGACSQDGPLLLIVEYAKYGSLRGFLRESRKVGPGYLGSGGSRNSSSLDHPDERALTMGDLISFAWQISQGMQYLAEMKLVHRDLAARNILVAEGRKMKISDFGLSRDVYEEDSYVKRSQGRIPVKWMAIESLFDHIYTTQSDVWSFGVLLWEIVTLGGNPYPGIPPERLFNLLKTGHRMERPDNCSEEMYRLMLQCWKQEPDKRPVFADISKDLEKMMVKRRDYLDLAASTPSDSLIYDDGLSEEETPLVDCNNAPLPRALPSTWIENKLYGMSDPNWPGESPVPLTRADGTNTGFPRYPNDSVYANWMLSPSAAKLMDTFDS
Chain of TIE2 (Q02763 23-1124, species assumed): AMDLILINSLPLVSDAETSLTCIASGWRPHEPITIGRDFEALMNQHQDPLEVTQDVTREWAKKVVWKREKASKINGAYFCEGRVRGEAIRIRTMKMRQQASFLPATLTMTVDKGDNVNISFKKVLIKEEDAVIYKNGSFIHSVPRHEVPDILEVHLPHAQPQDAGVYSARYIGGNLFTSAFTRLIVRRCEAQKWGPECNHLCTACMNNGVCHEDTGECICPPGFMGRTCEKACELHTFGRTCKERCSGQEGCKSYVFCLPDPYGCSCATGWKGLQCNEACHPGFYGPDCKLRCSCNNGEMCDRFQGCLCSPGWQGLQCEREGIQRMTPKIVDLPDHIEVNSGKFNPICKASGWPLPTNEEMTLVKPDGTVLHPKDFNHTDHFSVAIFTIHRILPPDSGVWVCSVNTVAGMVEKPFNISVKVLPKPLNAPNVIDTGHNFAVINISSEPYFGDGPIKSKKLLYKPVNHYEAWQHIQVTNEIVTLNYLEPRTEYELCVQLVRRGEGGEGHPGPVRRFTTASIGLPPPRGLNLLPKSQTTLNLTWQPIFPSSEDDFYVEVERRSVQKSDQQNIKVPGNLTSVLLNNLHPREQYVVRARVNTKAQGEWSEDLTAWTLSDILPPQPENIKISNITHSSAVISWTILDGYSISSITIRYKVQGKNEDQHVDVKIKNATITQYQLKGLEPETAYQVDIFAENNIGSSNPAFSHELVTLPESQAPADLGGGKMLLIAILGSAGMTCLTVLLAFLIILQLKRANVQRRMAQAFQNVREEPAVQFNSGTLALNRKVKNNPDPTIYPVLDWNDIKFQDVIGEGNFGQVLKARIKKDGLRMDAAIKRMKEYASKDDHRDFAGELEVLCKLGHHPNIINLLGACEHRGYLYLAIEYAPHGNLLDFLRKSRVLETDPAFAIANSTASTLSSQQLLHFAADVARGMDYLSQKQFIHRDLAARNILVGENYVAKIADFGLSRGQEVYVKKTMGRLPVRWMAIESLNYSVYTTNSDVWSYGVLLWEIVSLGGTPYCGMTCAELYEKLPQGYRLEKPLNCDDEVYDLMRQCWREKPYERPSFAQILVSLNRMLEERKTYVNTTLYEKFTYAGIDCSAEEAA
Chain of LYN [isoform a] (P07948 whole entry, canonical isoform): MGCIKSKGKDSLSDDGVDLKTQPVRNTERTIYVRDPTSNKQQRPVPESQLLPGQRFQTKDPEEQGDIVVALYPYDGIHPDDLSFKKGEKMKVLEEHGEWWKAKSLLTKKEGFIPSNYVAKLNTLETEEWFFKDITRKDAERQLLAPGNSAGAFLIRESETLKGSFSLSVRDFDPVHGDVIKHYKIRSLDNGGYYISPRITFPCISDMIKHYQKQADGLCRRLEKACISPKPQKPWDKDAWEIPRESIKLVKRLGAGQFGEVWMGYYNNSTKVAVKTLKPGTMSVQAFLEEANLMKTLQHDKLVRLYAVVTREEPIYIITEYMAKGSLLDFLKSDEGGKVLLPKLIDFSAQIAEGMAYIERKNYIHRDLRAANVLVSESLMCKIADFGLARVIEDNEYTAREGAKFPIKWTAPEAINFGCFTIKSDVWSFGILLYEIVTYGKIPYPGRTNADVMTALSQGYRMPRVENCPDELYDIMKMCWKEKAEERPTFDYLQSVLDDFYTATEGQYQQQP
Chain of PKC eta (P24723 whole entry): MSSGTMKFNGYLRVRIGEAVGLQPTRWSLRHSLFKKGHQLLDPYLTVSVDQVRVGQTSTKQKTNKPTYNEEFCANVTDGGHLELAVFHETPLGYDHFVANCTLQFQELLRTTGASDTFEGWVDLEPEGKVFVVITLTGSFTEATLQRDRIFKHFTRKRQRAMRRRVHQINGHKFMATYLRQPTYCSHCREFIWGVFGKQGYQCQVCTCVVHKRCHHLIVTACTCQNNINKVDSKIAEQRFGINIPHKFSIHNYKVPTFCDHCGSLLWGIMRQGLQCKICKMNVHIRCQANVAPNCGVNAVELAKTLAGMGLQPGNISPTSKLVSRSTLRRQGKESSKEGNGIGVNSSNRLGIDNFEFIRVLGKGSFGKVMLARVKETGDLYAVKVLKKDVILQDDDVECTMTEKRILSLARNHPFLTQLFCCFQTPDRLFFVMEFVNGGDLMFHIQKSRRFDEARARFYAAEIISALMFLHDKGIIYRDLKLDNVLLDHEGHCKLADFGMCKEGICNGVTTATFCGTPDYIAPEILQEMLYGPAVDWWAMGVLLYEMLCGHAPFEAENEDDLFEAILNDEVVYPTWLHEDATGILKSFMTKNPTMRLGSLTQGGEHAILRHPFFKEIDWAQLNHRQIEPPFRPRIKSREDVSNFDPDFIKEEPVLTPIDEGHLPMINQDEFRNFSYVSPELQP

## CC(C)[C@H]1C(=O)N[C@H](CO)CCc2c[nH]c3cccc(c23)N1C
PKCalpha
  Kd: 11 nM
PKC beta; read-out: Kd
  Kd: 6.1 nM
PKC gamma; read-out: Kd
  Kd: 19.4 nM
PKC delta; read-out: Kd
  Kd: 8.2 nM
PKC epsilon; read-out: Kd
  Kd: 21.9 nM
[1]
  antiproliferative activity against breast carcinoma: inactive against breast carcinoma

## C=C(C)[C@@]12OC3(c4ccccc4)O[C@@H]1[C@@H]1C4OC4(CO)C[C@]4(O)C(=O)C(C)=C[C@H]4[C@@]1(O3)[C@H](C)[C@H]2OC(=O)/C=C/C=C/c1ccccc1 (some centres unmarked)
PKCalpha
  Kd: 0.27 nM
PKC beta; read-out: Kd
  Kd: 0.16 nM
PKC gamma; read-out: Kd
  Kd: 0.21 nM
PKC delta; read-out: Kd
  Kd: 0.55 nM
PKC epsilon; read-out: Kd
  Kd: 1.2 nM
PKC eta; read-out: Kd
  Kd: 1.27 nM

## C=C(C)[C@@]12OC3(c4ccccc4)O[C@@H]1[C@@H]1C4OC4(CO)C[C@]4(O)C(=O)C(C)=C[C@H]4[C@@]1(O3)[C@H](C)[C@H]2OC(=O)CCCCc1ccccc1 (some centres unmarked)
PKCalpha
  Kd: 0.82 nM
PKC beta; read-out: Kd
  Kd: 0.51 nM
PKC gamma; read-out: Kd
  Kd: 0.8 nM
PKC delta; read-out: Kd
  Kd: 2.17 nM
PKC epsilon; read-out: Kd
  Kd: 3.13 nM
PKC eta; read-out: Kd
  Kd: 2.48 nM

## CCCCCCCCCCCCCC(=O)OC1C(C)C2(O)C(C=C(CO)CC3(O)C(=O)C(C)=CC32)C2C(C)(C)C12OC(C)=O (centres unmarked)
PKC beta
  Kd: 0.16 nM
PKC gamma
  Kd: 0.26 nM
PKC delta
  Kd: 1.31 nM
PKC epsilon
  Kd: 3.11 nM
PKC eta
  Kd: 2.63 nM

## Cc1sc2c(c1C)C(c1ccc(Cl)cc1)=NC(CC(=O)NCCCCCC(=O)NCc1ccc(COc3ccc4c(c3)N(C)[C@@H](C(C)C)C(=O)N[C@H](CO)C4)cc1)c1nnc(C)n1-2 (stereo partly drawn) [(R)-PHICS2.3]
PKCα
  PKC activation (ADP-Glo): still activated

## CC(C)(C)c1nc(-c2cccc(NS(=O)(=O)c3c(F)cccc3F)c2F)c(-c2ccnc(N)n2)s1 [Dabrafenib]
BRAF
  ka: 467000 M⁻¹ s⁻¹
  kd: 0.000288 s⁻¹

## Cc1sc2c(c1C)C(c1ccc(Cl)cc1)=N[C@@H](CC(=O)NCc1cn(CCCCCC(=O)NCCOc3ccc(-c4cc5c(C(=O)O)c[nH]c5cc4Cl)cc3)nn1)c1nnc(C)n1-2 [MS231]
BRD4 (AMPK)
  effect of addition of AMP on BRD4 phosphorylation signal: enhances the phosphorylation signal

## Cc1ccc(C(=O)Nc2ccc(CN3CCN(C)CC3)c(C(F)(F)F)c2)cc1C#Cc1cnc2cccnn12 [Ponatinib]
BTK
  ka: 21500 M⁻¹ s⁻¹
  kd: 0.0168 s⁻¹
DDR2
  ka: 29800 M⁻¹ s⁻¹
  kd: 0.00014 s⁻¹
  log(ka): 4.47
  log(kd): −3.85
FGFR1
  ka: 17900 M⁻¹ s⁻¹
  kd: 0.000119 s⁻¹
  log(ka): 4.25
  log(kd): −3.93
FYN [isoform a]
  ka: 84900 M⁻¹ s⁻¹
  kd: 8.93e-05 s⁻¹
  log(ka): 4.93
  log(kd): −4.05
TIE2
  ka: 40200 M⁻¹ s⁻¹
  kd: 0.00268 s⁻¹
  log(ka): 4.60
  log(kd): −2.57
LYN [isoform a]
  ka: 110000 M⁻¹ s⁻¹
  kd: 5.4e-05 s⁻¹
  log(ka): 5.04
  log(kd): −4.27
RET
  ka: 118000 M⁻¹ s⁻¹
  kd: 4.29e-05 s⁻¹
  log(ka): 5.07
  log(kd): −4.37

## Cc1sc2c(c1C)C(c1ccc(Cl)cc1)=NC(CC(=O)NCCOCCOCCOCCOCCC(=O)NC1=NN(c3ccc(Cl)c(Cl)c3)CC1)c1nnc(C)n1-2 (centres unmarked) [VS801]
BRD4 (Abl)
  tyrosine phosphorylation enzymatic activity: high tyrosine phosphorylation enzymatic activity

## Cc1sc2c(c1C)C(c1ccc(Cl)cc1)=N[C@@H](CC(=O)NCCOCCOCCOCCOCCC(=O)NCCOc1ccc(-c3cc4c(C(=O)O)c[nH]c4cc3Cl)cc1)c1nnc(C)n1-2 [VS806]
BRD4 (AMPK)
  effect of addition of AMP on BRD4 phosphorylation signal: enhances the phosphorylation signal

## Cc1sc2c(c1C)C(c1ccc(Cl)cc1)=NC(CC(=O)NCCOCCOCCOCCOCCC(=O)NC1=NN(c3ccc(Cl)c(Cl)c3)CC1)c1nnc(C)n1-2 (centres unmarked) [VS850]
BRD4 (Abl)
  tyrosine phosphorylation enzymatic activity: inactive
